# Legend:
# [1] = Toxicity in female BALB/C mouse model implanted with mouse CT26 cells assessed as effect on body weight at 30 mg/kg, po administered via gavage once daily and measured after 14 days; settings: in vivo, 336 h
# [2] = target: E3 ubiquitin-protein ligase CBL-B (Homo sapiens, UniProt Q13191); assay: Binding affinity to Cbl-b (unknown origin) assessed as inhibition constant incubated for 60 mins by TR-FRET assay
# [3] = Inhibition of immunosuppressive activity in PGE2-induced human T cells assessed as increase in IFNgamma production preincubated with PGE2 for 15 mins followed by compound administration for 60 mins and measured after 48 hrs of anti-human CD28 antibody by ELISA; settings: T-cell
# [4] = Inhibition of immunosuppressive activity in PGE2-induced human T cells assessed as increase in IL2 production preincubated with PGE2 for 15 mins followed by compound administration for 60 mins and measured after 48 hrs of anti-human CD28 antibody by ELISA; settings: T-cell
# [5] = Inhibition of immunosuppressive activity in PGE2-induced human T cells assessed as increase in cell proliferation preincubated with PGE2 for 15 mins followed by compound administration for 60 mins and measured after 72 hrs of anti-human CD28 antibody by flow cytometric analysis
# [6] = Apparent permeability across apical to basolateral side in human Caco-2 cells at 2 uM incubated for 2 hrs by LC-MS/MS analysis
# [7] = Apparent permeability across basolateral to apical side in human Caco-2 cells at 2 uM incubated for 2 hrs by LC-MS/MS analysis
# [8] = Apparent permeability across apical to basolateral side in human Caco-2 cells assessed as drug recovery at 2 uM incubated for 2 hrs by LC-MS/MS analysis
# [9] = Apparent permeability across basolateral to apical side in human Caco-2 cells assessed as drug recovery at 2 uM incubated for 2 hrs by LC-MS/MS analysis
# [10] = Metabolic stability in human hepatocytes assessed as hepatic extraction ratio at 2 uM measured up to 120 mins by LC-MS/MS analysis
# [11] = Metabolic stability in monkey hepatocytes assessed as hepatic extraction ratio at 2 uM measured up to 120 mins by LC-MS/MS analysis; settings: rhesus monkey
# [12] = Metabolic stability in rat hepatocytes assessed as hepatic extraction ratio at 2 uM measured up to 120 mins by LC-MS/MS analysis
# [13] = Metabolic stability in dog hepatocytes assessed as hepatic extraction ratio at 2 uM measured up to 120 mins by LC-MS/MS analysis
# [14] = Metabolic stability in mouse hepatocytes assessed as hepatic extraction ratio at 2 uM measured up to 120 mins by LC-MS/MS analysis
# [15] = Protein binding in human plasma assessed as unbound fraction at 5 uM incubated for 5 hrs by equilibrium dialysis based LC-MS analysis
# [16] = Protein binding in cynomolgus monkey plasma assessed as unbound fraction at 5 uM incubated for 5 hrs by equilibrium dialysis based LC-MS analysis
# [17] = Protein binding in Beagle dog plasma assessed as unbound fraction at 5 uM incubated for 5 hrs by equilibrium dialysis based LC-MS analysis
# [18] = Protein binding in Sprague-Dawley rat plasma assessed as unbound fraction at 5 uM incubated for 5 hrs by equilibrium dialysis based LC-MS analysis
# [19] = Protein binding in CD-1 mouse plasma assessed as unbound fraction at 5 uM incubated for 5 hrs by equilibrium dialysis based LC-MS analysis
# [20] = Plasma protein binding in human at 5 uM incubated for 5 hrs by equilibrium dialysis based LC-MS analysis
# [21] = Plasma protein binding in cynomolgus monkey at 5 uM incubated for 5 hrs by equilibrium dialysis based LC-MS analysis
# [22] = Plasma protein binding in Beagle dog at 5 uM incubated for 5 hrs by equilibrium dialysis based LC-MS analysis
# [23] = Plasma protein binding in Sprague-Dawley rat at 5 uM incubated for 5 hrs by equilibrium dialysis based LC-MS analysis
# [24] = Plasma protein binding in CD-1 mouse at 5 uM incubated for 5 hrs by equilibrium dialysis based LC-MS analysis
# [25] = mouse, in vivo, iv, 1 mg/kg, 24 h
# [26] = mouse, in vivo, po, 10 mg/kg, 24 h
# [27] = human, hepatocytes, 2 h, 2 µM
# [28] = rhesus monkey, hepatocytes, 2 h, 2 µM
# [29] = rat, hepatocytes, 2 h, 2 µM
# [30] = mouse, hepatocytes, 2 h, 2 µM
# in vivo [31] = settings: male, CD-1(ICR), mouse, iv, 1 mg/kg
# Description: Half-life in male CD-1(ICR) mouse at 1 mg/kg, iv measured after 1440 mins by LC-MS/MS analysis
# in vivo [32] = settings: male, CD-1(ICR), mouse, iv, 1 mg/kg; remark: listed apart in the source
# Description: C0 in male CD-1(ICR) mouse at 1 mg/kg, iv measured after 1440 mins by LC-MS/MS analysis
# in vivo [33] = settings: male, CD-1(ICR), mouse, iv, 1 mg/kg; remark: listed apart in the source
# Description: AUClast in male CD-1(ICR) mouse at 1 mg/kg, iv measured after 1440 mins by LC-MS/MS analysis
# in vivo [34] = settings: male, CD-1(ICR), mouse, iv, 1 mg/kg; remark: listed apart in the source
# Description: AUCinfinity in male CD-1(ICR) mouse at 1 mg/kg, iv measured after 1440 mins by LC-MS/MS analysis
# in vivo [35] = settings: male, CD-1(ICR), mouse, iv, 1 mg/kg; remark: listed apart in the source
# Description: MRTinfinity in male CD-1(ICR) mouse at 1 mg/kg, iv measured after 1440 mins by LC-MS/MS analysis
# in vivo [36] = settings: male, CD-1(ICR), mouse, iv, 1 mg/kg; remark: listed apart in the source
# Description: Apparent volume of distribution in male CD-1(ICR) mouse at 1 mg/kg, iv measured after 1440 mins by LC-MS/MS analysis
# in vivo [37] = settings: male, CD-1(ICR), mouse, iv, 1 mg/kg; remark: listed apart in the source
# Description: Volume of distribution at steady state in male CD-1(ICR) mouse at 1 mg/kg, iv measured after 1440 mins by LC-MS/MS analysis
# in vivo [38] = settings: male, CD-1(ICR), mouse, iv, 1 mg/kg; remark: listed apart in the source
# Description: Clearance in male CD-1(ICR) mouse at 1 mg/kg, iv measured after 1440 mins by LC-MS/MS analysis
# in vivo [39] = settings: male, CD-1(ICR), mouse, po, 10 mg/kg
# Description: Half-life in male CD-1(ICR) mouse at 10 mg/kg, po measured after 1440 mins by LC-MS/MS analysis
# in vivo [40] = settings: male, CD-1(ICR), mouse, po, 10 mg/kg; remark: listed apart in the source
# in vivo [41] = settings: male, CD-1(ICR), mouse, po, 10 mg/kg; remark: listed apart in the source
# in vivo [42] = settings: male, CD-1(ICR), mouse, po, 10 mg/kg; remark: listed apart in the source
# Description: AUClast in male CD-1(ICR) mouse at 10 mg/kg, po measured after 1440 mins by LC-MS/MS analysis
# in vivo [43] = settings: male, CD-1(ICR), mouse, po, 10 mg/kg; remark: listed apart in the source
# Description: AUCinfinity in male CD-1(ICR) mouse at 10 mg/kg, po measured after 1440 mins by LC-MS/MS analysis
# in vivo [44] = settings: male, CD-1(ICR), mouse, po, 10 mg/kg; remark: listed apart in the source
# Description: MRTinfinity in male CD-1(ICR) mouse at 10 mg/kg, po measured after 1440 mins by LC-MS/MS analysis
# in vivo [45] = settings: male, CD-1(ICR), mouse, po, 10 mg/kg; remark: listed apart in the source
# in vitro [46] = settings: human, Caco-2
# in vitro [47] = settings: human, hepatocytes
# in vitro [48] = settings: rhesus monkey, hepatocytes
# in vitro [49] = settings: rat, hepatocytes
# in vitro [50] = settings: dog, hepatocytes
# in vitro [51] = settings: dog, hepatocytes; remark: listed apart in the source
# in vitro [52] = settings: mouse, hepatocytes
# Sequence of E3 ubiquitin-protein ligase CBL-B (Q13191 whole entry): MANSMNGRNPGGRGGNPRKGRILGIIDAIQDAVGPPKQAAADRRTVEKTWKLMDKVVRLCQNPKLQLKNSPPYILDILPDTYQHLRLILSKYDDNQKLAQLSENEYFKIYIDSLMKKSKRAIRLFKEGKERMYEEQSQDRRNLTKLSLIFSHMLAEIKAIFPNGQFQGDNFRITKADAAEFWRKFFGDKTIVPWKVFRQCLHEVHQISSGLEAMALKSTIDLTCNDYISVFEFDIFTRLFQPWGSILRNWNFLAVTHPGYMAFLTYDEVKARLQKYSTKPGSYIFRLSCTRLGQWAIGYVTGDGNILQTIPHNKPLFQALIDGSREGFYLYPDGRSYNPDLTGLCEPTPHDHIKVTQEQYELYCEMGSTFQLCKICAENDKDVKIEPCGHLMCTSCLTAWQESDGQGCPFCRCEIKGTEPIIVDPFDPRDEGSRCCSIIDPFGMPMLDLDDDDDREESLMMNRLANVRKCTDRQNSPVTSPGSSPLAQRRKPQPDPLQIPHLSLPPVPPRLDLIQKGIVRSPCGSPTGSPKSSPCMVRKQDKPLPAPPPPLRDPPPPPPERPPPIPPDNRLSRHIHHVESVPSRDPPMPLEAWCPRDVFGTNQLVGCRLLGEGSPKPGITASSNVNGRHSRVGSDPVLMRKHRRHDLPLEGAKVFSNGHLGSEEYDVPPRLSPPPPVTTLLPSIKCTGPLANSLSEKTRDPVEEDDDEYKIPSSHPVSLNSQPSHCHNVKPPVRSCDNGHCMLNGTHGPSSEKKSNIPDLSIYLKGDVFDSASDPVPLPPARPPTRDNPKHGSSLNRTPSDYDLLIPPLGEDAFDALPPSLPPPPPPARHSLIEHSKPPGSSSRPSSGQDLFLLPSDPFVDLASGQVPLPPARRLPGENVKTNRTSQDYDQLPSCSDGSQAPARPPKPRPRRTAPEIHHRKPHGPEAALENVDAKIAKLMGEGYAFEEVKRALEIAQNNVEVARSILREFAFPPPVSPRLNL
structure (smiles),measurement,setting,value
C[C@H]1CCCN(Cc2cc3c(c(C(F)(F)F)c2)CN(c2cccc([C@]4(c5nncn5C)C[C@@H](C)C4)c2)C3=O)C1,Activity,[1],Non-toxic
same,Ki,[2],1.84 nM
same,EC50,[3],892 nM
same,EC50,[4],894 nM
same,EC50,[5],26.8 nM
same,"Papp A→B at 2 h, 2 µM",[6],1.98 ×10⁻⁶ cm/s
same,"Papp B→A at 2 h, 2 µM",[7],35.8 ×10⁻⁶ cm/s
same,"recovery at 2 h, 2 µM",[8],101%
same,"recovery at 2 h, 2 µM",[9],81.3%
same,"hepatic extraction ratio at 2 h, 2 µM",[10],0.7
same,"hepatic extraction ratio at 2 h, 2 µM",[11],0.9
same,"hepatic extraction ratio at 2 h, 2 µM",[12],0.8
same,"hepatic extraction ratio at 2 h, 2 µM",[13],0.9
same,"hepatic extraction ratio at 2 h, 2 µM",[14],0.9
same,"fraction unbound at 5 h, 5 µM",[15],0.0522
same,"fraction unbound at 5 h, 5 µM",[16],0.044
same,"fraction unbound at 5 h, 5 µM",[17],0.078
same,"fraction unbound at 5 h, 5 µM",[18],0.0736
same,"fraction unbound at 5 h, 5 µM",[19],0.0434
same,"fraction unbound at 5 h, 5 µM",[20],0.0522
same,"fraction unbound at 5 h, 5 µM",[21],0.044
same,"fraction unbound at 5 h, 5 µM",[22],0.078
same,"fraction unbound at 5 h, 5 µM",[23],0.0736
same,"fraction unbound at 5 h, 5 µM",[24],0.0434
same,%AUCextra,[25],1.18%
same,%AUCextra,[26],4.76%
same,CLH,[27],14.3 mL/min/kg
same,CLH,[28],37.5 mL/min/kg
same,CLH,[29],25.2 mL/min/kg
same,CLH,[30],79.8 mL/min/kg
same,half-life at 24 h,in vivo [31],18.6 min
same,C0 at 24 h,in vivo [32],572 ng/mL
same,AUC(0-t) at 24 h,in vivo [33],277 ng·h/mL
same,AUC(0-inf) at 24 h,in vivo [34],281 ng·h/mL
same,MRT inf at 24 h,in vivo [35],26.4 min
same,Vd at 24 h,in vivo [36],1.62 L/kg
same,Vd at 24 h,in vivo [37],1.55 L/kg
same,clearance at 24 h,in vivo [38],59.7 mL/min/kg
same,half-life at 24 h,in vivo [39],161 min
same,Tmax at 24 h,in vivo [40],19.8 min
same,Cmax at 24 h,in vivo [41],629 ng/mL
same,AUC(0-t) at 24 h,in vivo [42],661 ng·h/mL
same,AUC(0-inf) at 24 h,in vivo [43],690 ng·h/mL
same,MRT inf at 24 h,in vivo [44],103 min
same,bioavailability at 24 h,in vivo [45],24.6%
same,"efflux ratio at 2 h, 2 µM",in vitro [46],18
same,"half-life at 2 h, 2 µM",in vitro [47],46 min
same,"half-life at 2 h, 2 µM",in vitro [48],9.3 min
same,"half-life at 2 h, 2 µM",in vitro [49],39.3 min
same,"half-life at 2 h, 2 µM",in vitro [50],5.2 min
same,"CLint scaled at 2 h, 2 µM",in vitro [51],50.8 mL/min/kg
same,"half-life at 2 h, 2 µM",in vitro [52],10.4 min
